According to US20250066383A1, “PDE 7 MODULATOR COMPOUNDS” (Omeros Corporation, priority 2023, published 2025):

Legend:
PDE7B = PDE7B (Homo sapiens (Human), UniProt Q9NP56); assay: PDE7B assay: inhibition of PDE7B hydrolysis of [3H]cAMP to [3H]AMP (scintillation proximity, yttrium silicate beads); assay type: biochemical; settings: 16 nM [3H]cAMP, 30° C., 20 minutes; read-out: PDE 7B IC50
Procedure: (§1) PDE7A and PDE7B Assay. Compounds were tested for their activity by measuring the inhibition of PDE7A or PDE7B hydrolysis of [3H]cAMP to [3H]AMP. Generally, eight dilutions of compound were assayed in 50 mM Tris-HCl pH 7.5, 8.3 mM MgCl2, 0.5 mg/mL BSA, 1.7 mM EGTA, 16 nM [3H]cAMP, and 1% DMSO. PDE7A or PDE7B (typically 1-5 ng/mL) (BPS BioSciences, CA) is added to initiate the reaction. The reaction was incubated at 30° C. for 20 minutes. PDE7A and PDE7B hydrolysis was terminated by the addition of yttrium silicate beads (GE Healthcare, RPNQ0150) and counted on a Wallac Microbeta scintillation counter, 1-2 hours following the addition of the beads. Data was analyzed using XLfit […] from which ICso values were obtained.

PDE7A = PDE7A (Homo sapiens (Human), UniProt Q13946); assay: PDE7A assay: inhibition of PDE7A hydrolysis of [3H]cAMP to [3H]AMP (scintillation proximity, yttrium silicate beads); assay type: biochemical; settings: 16 nM [3H]cAMP, 30° C., 20 minutes; read-out: PDE 7A IC50
Procedure: as §1

Chain of PDE7B (Q9NP56 whole entry): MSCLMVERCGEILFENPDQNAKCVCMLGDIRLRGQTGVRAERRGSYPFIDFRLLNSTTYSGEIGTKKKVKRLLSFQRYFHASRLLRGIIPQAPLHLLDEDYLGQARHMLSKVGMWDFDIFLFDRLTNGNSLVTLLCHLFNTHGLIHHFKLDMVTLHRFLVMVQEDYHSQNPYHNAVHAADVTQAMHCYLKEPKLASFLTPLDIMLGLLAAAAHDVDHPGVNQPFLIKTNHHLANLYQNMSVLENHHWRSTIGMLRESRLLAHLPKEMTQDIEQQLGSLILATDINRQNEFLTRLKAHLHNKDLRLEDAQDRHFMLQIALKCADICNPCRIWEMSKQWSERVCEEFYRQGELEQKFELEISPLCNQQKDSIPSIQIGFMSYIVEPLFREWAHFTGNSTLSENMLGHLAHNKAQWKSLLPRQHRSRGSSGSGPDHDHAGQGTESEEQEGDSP
Chain of PDE7A (Q13946 whole entry): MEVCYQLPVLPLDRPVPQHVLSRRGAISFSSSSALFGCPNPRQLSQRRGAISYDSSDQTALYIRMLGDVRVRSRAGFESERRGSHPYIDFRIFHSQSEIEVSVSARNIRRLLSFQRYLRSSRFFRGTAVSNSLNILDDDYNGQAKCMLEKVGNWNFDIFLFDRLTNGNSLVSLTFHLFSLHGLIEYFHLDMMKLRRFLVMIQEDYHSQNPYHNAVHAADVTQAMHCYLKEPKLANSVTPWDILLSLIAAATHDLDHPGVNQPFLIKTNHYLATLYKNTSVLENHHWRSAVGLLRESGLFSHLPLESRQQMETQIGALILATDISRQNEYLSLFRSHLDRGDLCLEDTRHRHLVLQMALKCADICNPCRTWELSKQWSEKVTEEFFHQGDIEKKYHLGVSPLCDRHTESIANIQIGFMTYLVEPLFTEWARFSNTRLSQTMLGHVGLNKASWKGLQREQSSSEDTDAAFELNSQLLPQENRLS

| SMILES | IC50 (PDE7B) [nM] | IC50 (PDE7A) [nM] |
| --- | --- | --- |
| Cc1nn(CC2CCC2)c2sc(C(=O)N[C@H]3CC[C@H](N4CCN(C5CC5)CC4)CC3)cc12 [II-20, 1-(cyclobutylmethyl)-N-((1r,4r)-4-(4-cyclopropylpiperazin-1-yl)cyclohexyl)-3-methyl-1H-thieno [2,3-c]pyrazole-5-carboxamide] | 100 to 500 | 30 to 100 |
| Cc1nn(C2CCC(F)(F)CC2)c2sc(C(=O)N[C@H]3CC[C@H](N4CCC(F)(F)C4)CC3)cc12 [II-26, 1-(4,4-difluorocyclo-hexyl)-N-((1r,4r)-4-(3,3-difluoropyrrol-idin-1-yl)cyclohexyl)-3-methyl-1H-thieno [2,3-c]pyrazole-5-carboxamide] | < 10 | < 10 |
| Cc1nn(-c2ccccc2Cl)c2sc(C(=O)N[C@H]3C[C@H](N4CCOCC4)C3)cc12 [Compound I-3, 1-(2-chlorophenyl)-3-methyl-N-((1r,3r)-3-morpholinocyclobut-yl)-1H-thieno[2,3-c] pyrazole-5-carbox-amide] | 30 to 100 | 10 to 30 |
| CC(=O)N1CCN([C@H]2CC[C@H](NC(=O)c3cc4c(C)nn(-c5ccccc5Cl)c4s3)CC2)CC1 [Compound I-4, N-((1r,4r)-4-(4-acetyl-piperazin-1-yl)cyclo-hexyl)-1-(2-chloro-phenyl)-3-methyl-1H-thieno[2,3-c]pyrazole-5-carboxamide] | < 10 | < 10 |
| Cc1nn(CC(C)C)c2sc(C(=O)N[C@H]3CC[C@H](N4CCN(C5CC5)CC4)CC3)cc12 [II-6, N-((1r,4r)-4-(4-cyclo-propylpiperazin-1-yl)-cyclohexyl)-1-isobut-yl-3-methyl-1H-thieno[2,3-c]pyrazole-5-carboxamide] | 30 to 100 | 10 to 30 |
| Cc1nn(CC(C)C)c2sc(C(=O)N[C@H]3CC[C@H](N4CCN(C(=O)N(C)C)CC4)CC3)cc12 [II-19, N-((1r,4r)-4-(4-(dimethylcarbamo-yl)piperazin-1-yl)-cyclohexyl)-1-iso-butyl-3-methyl-1H-thieno[2,3-c]pyrazole-5-carboxamide] | 30 to 100 | 10 to 30 |
| CC(=O)N1CCN([C@H]2CC[C@H](NC(=O)c3cc4c(C)nn(C5C[C@@H](C)O[C@@H](C)C5)c4s3)CC2)CC1 (some centres unmarked) [II-2, N-((1r,4r)-4-(4-acetylpiperazin-1-yl)-cyclohexyl)-1-((2r,6s)-2,6-dimeth-yltetrahydro-2H-pyr-ran-4-yl)-3-methyl-1H-thieno[2,3-c]pyr-azole-5-carboxamide] | 100 to 500 | 30 to 100 |
| CC(=S)N1CCN([C@H]2CC[C@H](NC(=O)c3cc4c(C)nn(CC(C)C)c4s3)CC2)CC1 [II-23, N-((1r,4r)-4-(4-ethanethioylpiperazin-1-yl)cyclohexyl)-1-isobutyl-3-methyl-1H-thieno[2,3-c]pyrazole-5-carboxamide] | 30 to 100 | 10 to 30 |
| Cc1nn(CC(C)(C)C)c2sc(C(=O)Nc3cnc(N4CCOCC4)c(Cl)c3)cc12 [II-38, N-(5-chloro-6-morpholinopyridin-3-yl)-3-methyl-1-neopentyl-1H-thieno [2,3-c]pyrazole-5-carboxamide] | 500 to 2500 | 100 to 500 |
| Cc1nn(CC2CCC2)c2sc(C(=O)N[C@H]3CC[C@H](N4CCN(CC(F)(F)F)CC4)CC3)cc12 [II-21, 1-(cyclobutylmethyl)-3-methyl-N-((1r,4r)-4-(4-(2,2,2-trifluoro-ethyl)piperazin-1-yl)-cyclohexyl)-1H-thieno[2,3-c]pyrazole-5-carboxamide] | 30 to 100 | 10 to 30 |
| Cc1nn(C2CCC(F)(F)CC2)c2sc(C(=O)N[C@H]3CC[C@H](N4CCOCC4)CC3)cc12 [II-13, 1-(4,4-difluorocyclo-hexyl)-3-methyl-N-((1r,4r)-4-morpho-linocyclohexyl)-1H-thieno[2,3-c]pyrazole-5-carboxamide] | 10 to 30 | 10 to 30 |
| Cc1nn(CC(C)(C)C)c2sc(C(=O)N[C@H]3CC[C@H](N4CC(C#N)C4)CC3)cc12 [II-36, N-((1r,4r)-4-(3-cyanoazetidin-1-yl)-cyclohexyl)-3-meth-yl-1-neopentyl-1H-thieno[2,3-c]pyr-azole-5-carboxamide] | < 10 | < 10 |
| Cc1nn(CC(C)C)c2sc(C(=O)N[C@H]3CC[C@H](N4CCN(CC(F)(F)F)CC4)CC3)cc12 [II-7, 1-isobutyl-3-methyl-N-((1r,4r)-4-(4-(2,2,2-trifluoroethyl)piper-azin-1-yl)cyclohexyl)-1H-thieno[2,3-c]pyr-azole-5-carboxamide] | 30 to 100 | 30 to 100 |
| Cc1nn(-c2ccccc2Cl)c2sc(C(=O)N[C@H]3C[C@H](N4CCN(C5CC5)CC4)C3)cc12 [Compound I-6, 1-(2-chlorophenyl)-N-((1r,3r)-3-(4-cyclo-propylpiperazin-1-yl)-cyclobutyl)-3-methyl-1H-thieno[2,3-c]pyr-azole-5-carboxamide] | 30 to 100 | 30 to 100 |
| Cc1nn(CC(C)(C)C)c2sc(C(=O)N[C@H]3CC[C@H](N4CCOCC4)CC3)cc12 [II-32, 3-methyl-N-((1r,4r)-4-morpholinocyclo-hexyl)-1-neopentyl-1H-thieno[2,3-c]pyr-azole-5-carboxamide] | < 10 | < 10 |
| Cc1nn(CC(C)C)c2sc(C(=O)N[C@H]3CC[C@H](N4CC(F)(F)C4)CC3)cc12 [II-4, N-((1r,4r)-4-(3,3-difluoroazetidin-1-yl)-cyclohexyl)-1-isobut-yl-3-methyl-1H-thieno [2,3-c]pyrazole-5-carboxamide] | 30 to 100 | 10 to 30 |
| CC(=O)N1CCN([C@H]2CC[C@H](NC(=O)c3cc4c(C)nn(CC(C)C)c4s3)CC2)CC1 [II-16, N-((1r,4r)-4-(4-acet-ylpiperazin-1-yl)-cyclohexyl)-1-iso-butyl-3-methyl-1H thieno[2,3-c]pyrazole-5-carboxamide] | 30 to 100 | 10 to 30 |
| Cc1nn(CC(C)(C)C)c2sc(C(=O)N[C@H]3C[C@H](N4CCOCC4)C3)cc12 [II-25, 3-methyl-N-((1r,3r)-3-morpholinocyclo-butyl)-1-neopentyl-1H-thieno[2,3-c]pyr-azole-5-carboxamide] | 30 to 100 | 10 to 30 |
| Cc1nn(CC(C)C)c2sc(C(=O)N[C@H]3CC[C@H](N4CC(OC(F)F)C4)CC3)cc12 [II-44, N-((1r,4r)-4-(3-(difluoromethoxy)-azetidin-1-yl)cyclo-hexyl)-1-isobutyl-3-methyl-1H-thieno [2,3-c]pyrazole-5-carboxamide] | 100 to 500 | 30 to 100 |
| Cc1nn(CC(C)(C)C)c2sc(C(=O)N[C@H]3CC[C@H](N4CCN(C5CC5)CC4)CC3)cc12 [II-24, N-((1r,4r)-4-(4-cyclo-propylpiperazin-1-yl)-cyclohexyl)-3-meth-yl-1-neopentyl-1H-thieno[2,3-c]pyrazole-5-carboxamide] | < 10 | < 10 |
| Cc1nn(CC(C)C)c2sc(C(=O)N[C@H]3CC[C@H](N4CC(C#N)C4)CC3)cc12 [II-43, N-((1r,4r)-4-(3-cyanoazetidin-1-yl)-cyclohexyl)-1-iso-butyl-3-methyl-1H-thieno[2,3-c]pyrazole-5-carboxamide] | 10 to 30 | 10 to 30 |
| Cc1nn(C2CCC(F)(F)CC2)c2sc(C(=O)N[C@H]3C[C@H](N4CCC(F)(F)C4)C3)cc12 [II-3, 1-(4,4-difluorocyclo-hexyl)-N-(3-(3,3-difluoropyrrolidin-1-yl)cyclobutyl)-3-methyl-1H-thieno [2,3-c]pyrazole-5-carboxamide] | 10 to 30 | 10 to 30 |
